Test results taken from ChEMBL document CHEMBL5338751, “Discovery of the First-in-Class Intestinal Restricted FXR and FABP1 Dual Modulator ZLY28 for the Treatment of Nonalcoholic Fatty Liver Disease” (J Med Chem, 2023).
The source made the active and inactive calls. No cut-off for these calls is given here.

Key:
[1] = Drug concentration in C57BL/6 mouse plasma at 20 mg/kg, po administered for 5 days and measured after 1 hr post final dose by LC-MS analysis; assay type: ADME, organism-based; details: time 5 day
Estrogen receptor = Estrogen receptor (Homo sapiens, UniProt P03372); test: Activation of Gal-DBD and NHRLBD fused ERalpha (unknown origin) transfected in African green monkey CV-1 cells by luciferase reporter assay; assay type: cell-based
[2] = target: Fatty acid-binding protein, adipocyte (Homo sapiens, UniProt P15090); test: Displacement of 8-anilino-1-naphthalene-sulfonic acid from FABP4 (unknown origin) incubated for 3 mins by fluorescence based assay
[3] = Inhibition of PPARbeta/delta (unknown origin) transfected in HepG2 cells incubated for 18 hrs in presence of GW0742 by dual luciferase reporter assay; details: Homo sapiens, HepG2, 18 h
Mus musculus [4] = test: Anti-NASH activity in western diet and CCl4-induced nonalcoholic steatohepatitis C57BL/6 mouse assessed as alleviation of ballooning at 20 mg/kg, po administered for 12 weeks starting from week 8 and change in dose for every 5 days; assay type: functional, organism-based; details: time 4.0 weeks
[5] = target: T1, Peroxisome proliferator-activated receptor alpha (Homo sapiens, UniProt Q07869); test: Agonist activity at pBIND-PPARalpha (unknown origin) transfected in HepG2 cells incubated for 18 hrs by renilla/firefly based dual-glo luciferase assay; assay type: cell-based
T1 sequence (Q07869 whole entry): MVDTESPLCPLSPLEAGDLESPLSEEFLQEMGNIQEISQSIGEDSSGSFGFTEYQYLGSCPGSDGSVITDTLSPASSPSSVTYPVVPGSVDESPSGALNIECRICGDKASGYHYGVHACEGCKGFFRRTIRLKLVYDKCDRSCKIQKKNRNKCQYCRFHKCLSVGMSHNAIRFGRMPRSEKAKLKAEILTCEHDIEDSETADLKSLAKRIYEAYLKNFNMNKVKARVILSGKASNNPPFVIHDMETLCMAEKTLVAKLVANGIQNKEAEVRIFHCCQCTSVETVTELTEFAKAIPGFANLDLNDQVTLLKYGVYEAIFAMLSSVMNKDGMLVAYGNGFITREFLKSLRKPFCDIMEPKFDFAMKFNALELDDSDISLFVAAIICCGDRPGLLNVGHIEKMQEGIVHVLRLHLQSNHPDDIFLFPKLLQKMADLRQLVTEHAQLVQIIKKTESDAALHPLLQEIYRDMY

[6] = Subacute toxicity in ICR mouse assessed as reduction in serum TBIL level at 500 mg/kg/day, po administered for 14 days; assay type: organism-based; details: in vivo, 336 h, time 14 day
[7] = Agonist activity at PPARbeta/delta (unknown origin) transfected in HepG2 cells incubated for 18 hrs by renilla/firefly based dual-glo luciferase assay; assay type: cell-based; details: Homo sapiens, HepG2, 18 h
[8] = Ratio of drug level in ileum to plasma in C57BL/6 mouse at 20 mg/kg, po administered for 5 days and measured after 1 hr post final dose by LC-MS analysis
[9] = Subacute toxicity in ICR mouse assessed as changes in organ to body weight ratio at 500 mg/kg/day, po administered for 14 days; assay type: organism-based; details: in vivo, 336 h, time 14 day
Mus musculus [10] = test: Anti-NASH activity in western diet and CCl4-induced nonalcoholic steatohepatitis C57BL/6 mouse assessed as reduction in MCP-1 level at 20 mg/kg, po administered for 12 weeks starting from week 8 and change in dose for every 5 days by ELISA; assay type: functional, organism-based; details: time 4.0 weeks
Estrogen receptor beta = Estrogen receptor beta (Homo sapiens, UniProt Q92731); test: Activation of Gal-DBD and NHRLBD fused ERbeta (unknown origin) transfected in African green monkey CV-1 cells by luciferase reporter assay; assay type: cell-based
[11] = Subacute toxicity in ICR mouse assessed as changes in body weight at 500 mg/kg/day, po administered for 14 days; assay type: organism-based; details: in vivo, 336 h, time 14 day
[12] = target: Mineralocorticoid receptor (Homo sapiens, UniProt P08235); test: Activation of Gal-DBD and NHRLBD fused MR (unknown origin) transfected in African green monkey CV-1 cells by luciferase reporter assay; assay type: cell-based
Mus musculus [13] = test: Anti-NASH activity in western diet and CCl4-induced nonalcoholic steatohepatitis C57BL/6 mouse assessed as downregulation of IL6 expression level at 20 mg/kg, po administered for 12 weeks starting from week 8 and change in dose for every 5 days by ELISA; assay type: functional, organism-based; details: time 4.0 weeks
Mus musculus [14] = test: Antioxidant activity in western diet and CCl4-induced nonalcoholic steatohepatitis C57BL/6 mouse model assessed as increase in SOD level at 20 mg/kg, po administered for 12 weeks starting from week 8 and change in dose for every 5 days; assay type: functional, organism-based; details: time 4.0 weeks
[15] = target: T2, Bile acid receptor (Mus musculus) (UniProt Q60641); test: In vivo activation of FXR pathway in western diet and CCl4-induced nonalcoholic steatohepatitis C57BL/6 mouse model assessed as upregulation of SHP gene expression in ileum at 20 mg/kg, po administered for 12 weeks starting from week 8 and change in dose for every 5 days by RT-PCR analysis; assay type: functional, organism-based; details: time 4.0 weeks
T2 sequence (whole entry): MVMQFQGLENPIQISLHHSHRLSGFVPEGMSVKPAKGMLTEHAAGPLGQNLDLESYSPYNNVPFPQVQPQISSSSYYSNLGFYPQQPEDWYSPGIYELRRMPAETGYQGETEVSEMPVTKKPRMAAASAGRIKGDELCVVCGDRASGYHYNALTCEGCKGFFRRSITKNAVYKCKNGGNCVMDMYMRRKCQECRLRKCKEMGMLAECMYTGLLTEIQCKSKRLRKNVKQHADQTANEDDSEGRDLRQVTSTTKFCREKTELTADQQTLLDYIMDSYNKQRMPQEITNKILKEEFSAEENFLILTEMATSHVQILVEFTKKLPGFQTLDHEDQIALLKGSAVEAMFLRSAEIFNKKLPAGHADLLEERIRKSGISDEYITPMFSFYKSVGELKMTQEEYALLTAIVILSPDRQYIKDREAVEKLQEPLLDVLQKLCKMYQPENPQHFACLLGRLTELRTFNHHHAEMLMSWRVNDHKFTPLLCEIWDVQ

Chain of Mineralocorticoid receptor (P08235 whole entry, the tested form may be a part): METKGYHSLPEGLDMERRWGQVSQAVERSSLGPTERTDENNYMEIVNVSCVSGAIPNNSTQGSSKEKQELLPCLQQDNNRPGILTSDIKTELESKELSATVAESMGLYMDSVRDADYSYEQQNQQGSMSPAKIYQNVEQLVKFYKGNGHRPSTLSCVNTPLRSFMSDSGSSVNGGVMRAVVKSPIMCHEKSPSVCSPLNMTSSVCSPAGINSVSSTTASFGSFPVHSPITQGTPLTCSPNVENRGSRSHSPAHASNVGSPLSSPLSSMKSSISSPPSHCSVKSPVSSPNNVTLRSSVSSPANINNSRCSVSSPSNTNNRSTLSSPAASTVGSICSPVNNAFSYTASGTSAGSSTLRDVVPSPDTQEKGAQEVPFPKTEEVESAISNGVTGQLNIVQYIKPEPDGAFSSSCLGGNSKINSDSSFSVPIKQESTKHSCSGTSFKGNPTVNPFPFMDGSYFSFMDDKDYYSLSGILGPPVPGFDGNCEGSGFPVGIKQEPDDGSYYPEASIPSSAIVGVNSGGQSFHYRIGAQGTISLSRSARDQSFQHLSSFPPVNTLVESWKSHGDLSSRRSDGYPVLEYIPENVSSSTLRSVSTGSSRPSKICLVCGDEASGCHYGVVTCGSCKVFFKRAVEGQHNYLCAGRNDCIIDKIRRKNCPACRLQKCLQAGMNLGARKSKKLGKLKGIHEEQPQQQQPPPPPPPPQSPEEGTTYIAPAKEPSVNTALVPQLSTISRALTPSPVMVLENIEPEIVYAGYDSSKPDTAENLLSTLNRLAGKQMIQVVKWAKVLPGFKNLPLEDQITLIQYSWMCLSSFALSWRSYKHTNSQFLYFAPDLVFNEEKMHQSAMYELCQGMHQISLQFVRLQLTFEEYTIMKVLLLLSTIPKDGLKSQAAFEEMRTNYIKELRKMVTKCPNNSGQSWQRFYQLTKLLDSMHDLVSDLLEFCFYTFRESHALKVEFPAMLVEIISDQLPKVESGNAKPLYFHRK
Chain of Fatty acid-binding protein, adipocyte (P15090 whole entry): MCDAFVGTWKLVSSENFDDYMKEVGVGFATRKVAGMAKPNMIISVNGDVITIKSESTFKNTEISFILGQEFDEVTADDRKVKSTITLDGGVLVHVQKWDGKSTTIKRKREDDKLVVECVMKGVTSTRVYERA
Chain of Estrogen receptor (P03372 whole entry, the tested form may be a part): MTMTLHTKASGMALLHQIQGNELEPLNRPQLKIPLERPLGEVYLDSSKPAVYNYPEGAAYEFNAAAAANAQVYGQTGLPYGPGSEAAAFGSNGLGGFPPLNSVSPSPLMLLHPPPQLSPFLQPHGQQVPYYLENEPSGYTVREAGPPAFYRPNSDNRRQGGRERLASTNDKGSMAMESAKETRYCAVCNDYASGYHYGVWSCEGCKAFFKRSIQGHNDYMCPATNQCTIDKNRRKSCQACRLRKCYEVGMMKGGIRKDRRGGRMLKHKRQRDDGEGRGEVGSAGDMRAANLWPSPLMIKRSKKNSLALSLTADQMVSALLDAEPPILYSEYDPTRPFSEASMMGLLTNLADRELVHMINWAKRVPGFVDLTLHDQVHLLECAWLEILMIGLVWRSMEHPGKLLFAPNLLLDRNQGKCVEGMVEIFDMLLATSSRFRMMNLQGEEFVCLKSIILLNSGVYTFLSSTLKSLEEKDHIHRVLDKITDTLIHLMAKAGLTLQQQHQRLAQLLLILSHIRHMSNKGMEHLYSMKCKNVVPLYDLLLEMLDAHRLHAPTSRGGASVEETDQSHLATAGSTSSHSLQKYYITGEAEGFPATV
Chain of Estrogen receptor beta (Q92731 whole entry, the tested form may be a part): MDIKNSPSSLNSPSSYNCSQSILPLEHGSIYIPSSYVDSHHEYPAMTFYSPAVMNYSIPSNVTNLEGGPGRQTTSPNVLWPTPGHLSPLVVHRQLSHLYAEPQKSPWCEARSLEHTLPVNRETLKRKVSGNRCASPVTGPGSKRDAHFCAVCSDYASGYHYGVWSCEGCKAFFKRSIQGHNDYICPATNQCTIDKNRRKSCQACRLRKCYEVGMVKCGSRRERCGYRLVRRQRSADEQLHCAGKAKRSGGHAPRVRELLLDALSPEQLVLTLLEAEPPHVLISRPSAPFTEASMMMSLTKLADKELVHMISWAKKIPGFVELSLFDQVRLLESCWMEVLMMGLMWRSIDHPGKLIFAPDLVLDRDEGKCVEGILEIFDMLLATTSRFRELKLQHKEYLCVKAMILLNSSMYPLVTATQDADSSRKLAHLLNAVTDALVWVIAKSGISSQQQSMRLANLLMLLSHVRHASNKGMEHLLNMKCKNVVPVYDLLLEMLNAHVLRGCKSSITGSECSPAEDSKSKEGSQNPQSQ

Question: With `O=C(O)C1(c2cccc(-c3ccc(OCc4c(-c5c(Cl)cccc5Cl)noc4C4CC4)cc3)c2)CC1` as the compound, how does the concentration at 120 h [1] read?
Answer: 29 ng/mL

Question: And the EC50 (Estrogen receptor)?
Answer: > 10 µM

Question: What about the IC50 [2] of the same compound?
Answer: 6.3 µM

Question: What about the IC50 [3] of the same compound?
Answer: > 10 µM

Question: What about the Activity (Mus musculus [4]) of the same compound?
Answer: Active

Question: What about the EC50 [5] of the same compound?
Answer: > 10 µM

Question: What about the Activity [6] of the same compound?
Answer: Non-Toxic

Question: What about the EC50 [7] of the same compound?
Answer: > 10 µM

Question: And the Kp at 120 h [8]?
Answer: 104

Question: And the Activity [9]?
Answer: Non-Toxic

Question: What about the Activity (Mus musculus [10]) of the same compound?
Answer: Active

Question: What about the EC50 (Estrogen receptor beta) of the same compound?
Answer: > 10 µM

Question: What about the Activity [11] of the same compound?
Answer: Non-Toxic

Question: And the EC50 [12]?
Answer: > 10 µM

Question: And the Activity (Mus musculus [13])?
Answer: Active

Question: And the Activity (Mus musculus [14])?
Answer: Active

Question: What about the Activity [15] of the same compound?
Answer: Active
